Experimental data published in paper PMC12281424, “A Rac-specific competitive inhibitor of guanine nucleotide binding reduces metastasis in triple-negative breast cancer” (Cell Reports Medicine, 2025).
Values joined by “and” are separate entries in the source; they are usually repeats but may differ in a detail not shown here. Equal values may be shown once.

Legend:
[1] = tested on: other breast cancer cell lines and other types of cancer cell lines; assay: Focus formation (clonogenic) assay; type: cell-based; conditions: 10 μM
Protocol: Figure 5 A41 decreases growth and invasiveness of TNBC cells in vitro (A) Representative images of RAC-GTP levels (red) in MDA-MB-468 Luc cells in the absence (CTL) and presence of EHT1864, NSC23766, or A41 (1 h at 10 μM) (left). Luciferase (Luc, green) was used to detect the cells. RAC-GTP mean fluorescence intensity was quantified inside the cell area (right) (n = 31–37 cells from 3 independent experiments; ∗p < 0.05, ∗∗∗p < 0.001) (scale bars: 10 μm). […] (C) Quantification of colony number of indicated cancer cell lines in the presence of A41 (10 μM) expressed as the percentage of control in the absence of A41. Results shown are representative of N > 3 independent experiments. (D) Immunoblot analysis and corresponding quantification of AKT and P44/42 expression and phosphorylation (pAKT, p44/42) in MDA-MB-468 Luc cells in the absence (−) and presence of NSC23766 or A41 (1 h at 10^−5 M). Results shown are representative of 3 independent experiments. ∗∗p < 0.01 vs. untreated cells, ^###p < 0.001 vs. NSC23766-treated cells. (E) 3D invasion assay of MDA-MB-468 Luc and cancer-associated fibroblasts (CAFs) and corresponding quantification (scale bars: 200 μm). […]
1000 cells/well from the indicated cancer cell lines were seeded in 6-wells plates and allowed to grow 2 days before treatments. […] The area occupied by the cells was then quantified with ImageJ software. […]

[2] = tested on: membrane receptors, ion channel, and kinases; assay: In vitro binding assays on a panel of potential targets
Protocol: (§1) Blood cell counts, kinase profiler, safety screen, bacterial cytotoxicity, Ames, micronucleus assays were performed by the company Eurofins (France). The kinase profiler was performed by the company Eurofins (Discovery, Panlab and Cerep).

TA1537 = assay: Bacterial cytotoxicity; type: cell-based
Source text: Data S2. Bacterial cytotoxicity of A41.
Test Concentration %Effect Cytotoxicity (% of control) […]
Bacterial cytotoxicity (TA1537 - S9)

ASK1(h) = ASK1(h) (Homo sapiens, UniProt Q99683); assay: Kinase Profiler; type: biochemical
Protocol: as §1

BMPR2(h) = BMPR2(h) (Homo sapiens, UniProt Q13873); assay: Kinase Profiler; type: biochemical
Protocol: as §1

CDK5/p25(h) = CDK5/p25(h) (Homo sapiens, UniProt Q00535); assay: Kinase Profiler; type: biochemical
Protocol: as §1

DCAMKL2(h) = DCAMKL2(h) (Homo sapiens, UniProt Q8N568); assay: Kinase Profiler; type: biochemical
Protocol: as §1

EGFR(L858R)(h) = EGFR(L858R)(h) (Homo sapiens, UniProt P00533, L858R); assay: Kinase Profiler; type: biochemical
Protocol: (§2) The kinase profiler was performed by the company Eurofins (Discovery, Panlab and Cerep).

EphA4(h) = EphA4(h) (Homo sapiens, UniProt P54764); assay: Kinase Profiler; type: biochemical
Protocol: as §1

EphB1(h) = EphB1(h) (Homo sapiens, UniProt P54762); assay: Kinase Profiler; type: biochemical
Protocol: as §1

HRI(h) = HRI(h) (Homo sapiens, UniProt Q9BQI3); assay: Kinase Profiler; type: biochemical
Protocol: as §2

Itk(h) = Itk(h) (Homo sapiens, UniProt Q08881); assay: Kinase Profiler; type: biochemical
Protocol: as §2

LKB1(h) = LKB1(h) (Homo sapiens, UniProt Q15831); assay: Kinase Profiler; type: biochemical
Protocol: as §2

MELK(h) = MELK(h) (Homo sapiens, UniProt Q14680); assay: Kinase Profiler; type: biochemical
Protocol: as §2

Met(h) = Met(h) (Homo sapiens, UniProt P08581); assay: Kinase Profiler; type: biochemical
Protocol: as §2

MLK3(h) = MLK3(h) (Homo sapiens, UniProt Q16584); assay: Kinase Profiler; type: biochemical
Protocol: as §1

NDR1(h) = NDR1(h) (Homo sapiens, UniProt Q15208); assay: Kinase Profiler; type: biochemical
Protocol: as §2

NDR2(h) = NDR2(h) (Homo sapiens, UniProt Q9Y2H1); assay: Kinase Profiler; type: biochemical
Protocol: as §2

Rsk1(h) = Rsk1(h) (Homo sapiens, UniProt Q15418); assay: Kinase Profiler; type: biochemical
Protocol: as §2

Rsk1(r) = Rsk1(r) (Rattus norvegicus, UniProt Q63531); assay: Kinase Profiler; type: biochemical
Protocol: as §2

Rsk2(h) = Rsk2(h) (Homo sapiens, UniProt P51812); assay: Kinase Profiler; type: biochemical
Protocol: as §2

SRPK2(h) = SRPK2(h) (Homo sapiens, UniProt P78362); assay: Kinase Profiler; type: biochemical
Protocol: as §2

TLK2(h) = TLK2(h) (Homo sapiens, UniProt Q86UE8); assay: Kinase Profiler; type: biochemical
Protocol: as §2

TTK(h) = TTK(h) (Homo sapiens, UniProt P33981); assay: Kinase Profiler; type: biochemical
Protocol: as §2

WNK4(h) = WNK4(h) (Homo sapiens, UniProt Q96J92); assay: Kinase Profiler; type: biochemical
Protocol: as §2

Chain of BMPR2(h) (Q13873 27-1038): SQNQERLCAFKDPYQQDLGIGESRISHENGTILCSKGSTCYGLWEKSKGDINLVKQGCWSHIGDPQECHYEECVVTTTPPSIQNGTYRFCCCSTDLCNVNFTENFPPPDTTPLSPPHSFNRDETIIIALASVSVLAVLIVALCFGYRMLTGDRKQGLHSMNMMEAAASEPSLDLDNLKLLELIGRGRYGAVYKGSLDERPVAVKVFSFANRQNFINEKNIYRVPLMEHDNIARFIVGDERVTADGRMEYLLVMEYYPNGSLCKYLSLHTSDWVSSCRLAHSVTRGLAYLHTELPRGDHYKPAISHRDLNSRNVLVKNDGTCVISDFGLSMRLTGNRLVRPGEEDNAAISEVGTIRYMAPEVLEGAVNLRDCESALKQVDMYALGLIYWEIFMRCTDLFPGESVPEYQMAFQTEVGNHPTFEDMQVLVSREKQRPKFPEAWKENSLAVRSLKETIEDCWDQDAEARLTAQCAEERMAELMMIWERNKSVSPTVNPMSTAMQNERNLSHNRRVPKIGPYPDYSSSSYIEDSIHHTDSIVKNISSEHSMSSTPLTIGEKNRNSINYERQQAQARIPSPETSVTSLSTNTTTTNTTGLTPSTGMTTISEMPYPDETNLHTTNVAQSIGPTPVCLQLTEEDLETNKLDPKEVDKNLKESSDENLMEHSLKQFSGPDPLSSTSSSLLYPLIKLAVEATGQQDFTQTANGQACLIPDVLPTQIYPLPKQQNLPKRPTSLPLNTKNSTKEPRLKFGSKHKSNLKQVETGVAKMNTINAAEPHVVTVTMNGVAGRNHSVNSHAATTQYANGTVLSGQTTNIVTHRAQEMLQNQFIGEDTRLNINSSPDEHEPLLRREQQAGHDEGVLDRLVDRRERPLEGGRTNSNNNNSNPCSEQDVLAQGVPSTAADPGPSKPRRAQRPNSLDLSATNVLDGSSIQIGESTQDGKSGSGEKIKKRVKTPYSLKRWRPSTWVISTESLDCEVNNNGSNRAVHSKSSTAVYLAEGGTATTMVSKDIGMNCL
Chain of EphB1(h) (P54762 18-984): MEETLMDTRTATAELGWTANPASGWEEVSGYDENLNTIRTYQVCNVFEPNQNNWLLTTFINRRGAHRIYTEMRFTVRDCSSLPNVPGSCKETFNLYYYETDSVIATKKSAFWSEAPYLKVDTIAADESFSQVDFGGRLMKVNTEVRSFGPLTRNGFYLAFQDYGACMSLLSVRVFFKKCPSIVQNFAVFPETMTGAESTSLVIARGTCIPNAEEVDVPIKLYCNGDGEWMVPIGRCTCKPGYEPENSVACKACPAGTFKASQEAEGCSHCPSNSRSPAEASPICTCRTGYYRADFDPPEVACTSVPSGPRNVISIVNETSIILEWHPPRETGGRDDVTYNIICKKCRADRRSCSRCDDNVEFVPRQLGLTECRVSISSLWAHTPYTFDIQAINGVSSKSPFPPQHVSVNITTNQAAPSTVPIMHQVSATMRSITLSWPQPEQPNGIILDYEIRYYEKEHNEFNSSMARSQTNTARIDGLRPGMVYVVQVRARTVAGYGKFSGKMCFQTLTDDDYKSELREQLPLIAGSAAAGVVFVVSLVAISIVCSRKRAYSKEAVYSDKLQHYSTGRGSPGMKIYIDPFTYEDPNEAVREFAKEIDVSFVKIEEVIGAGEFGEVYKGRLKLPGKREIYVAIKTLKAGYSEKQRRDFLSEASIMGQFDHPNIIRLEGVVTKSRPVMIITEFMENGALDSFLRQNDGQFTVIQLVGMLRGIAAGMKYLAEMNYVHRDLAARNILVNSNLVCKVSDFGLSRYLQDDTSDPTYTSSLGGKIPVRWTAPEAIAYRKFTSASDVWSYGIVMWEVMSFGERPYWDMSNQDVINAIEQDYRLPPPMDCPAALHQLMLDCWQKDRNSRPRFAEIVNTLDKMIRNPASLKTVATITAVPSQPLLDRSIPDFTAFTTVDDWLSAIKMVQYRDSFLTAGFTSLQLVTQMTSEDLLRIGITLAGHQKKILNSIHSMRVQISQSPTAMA
Chain of CDK5/p25(h) (Q00535 whole entry): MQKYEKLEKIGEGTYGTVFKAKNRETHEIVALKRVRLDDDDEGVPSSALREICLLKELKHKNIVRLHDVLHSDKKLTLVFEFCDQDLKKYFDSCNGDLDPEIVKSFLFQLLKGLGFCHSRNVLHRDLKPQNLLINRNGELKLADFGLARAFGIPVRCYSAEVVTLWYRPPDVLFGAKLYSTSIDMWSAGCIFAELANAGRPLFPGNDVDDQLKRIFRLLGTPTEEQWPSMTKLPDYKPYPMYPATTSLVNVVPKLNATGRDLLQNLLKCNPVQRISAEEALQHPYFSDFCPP
Chain of CDK5/p25(h) (Q15078 99-307 partner limits assumed): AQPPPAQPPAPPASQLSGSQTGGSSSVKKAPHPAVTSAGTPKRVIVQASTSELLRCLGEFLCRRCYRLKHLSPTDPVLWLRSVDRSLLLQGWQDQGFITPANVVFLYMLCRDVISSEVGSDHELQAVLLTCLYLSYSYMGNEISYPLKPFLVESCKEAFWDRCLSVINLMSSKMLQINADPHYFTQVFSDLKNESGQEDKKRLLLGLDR
Chain of ASK1(h) (Q99683 whole entry): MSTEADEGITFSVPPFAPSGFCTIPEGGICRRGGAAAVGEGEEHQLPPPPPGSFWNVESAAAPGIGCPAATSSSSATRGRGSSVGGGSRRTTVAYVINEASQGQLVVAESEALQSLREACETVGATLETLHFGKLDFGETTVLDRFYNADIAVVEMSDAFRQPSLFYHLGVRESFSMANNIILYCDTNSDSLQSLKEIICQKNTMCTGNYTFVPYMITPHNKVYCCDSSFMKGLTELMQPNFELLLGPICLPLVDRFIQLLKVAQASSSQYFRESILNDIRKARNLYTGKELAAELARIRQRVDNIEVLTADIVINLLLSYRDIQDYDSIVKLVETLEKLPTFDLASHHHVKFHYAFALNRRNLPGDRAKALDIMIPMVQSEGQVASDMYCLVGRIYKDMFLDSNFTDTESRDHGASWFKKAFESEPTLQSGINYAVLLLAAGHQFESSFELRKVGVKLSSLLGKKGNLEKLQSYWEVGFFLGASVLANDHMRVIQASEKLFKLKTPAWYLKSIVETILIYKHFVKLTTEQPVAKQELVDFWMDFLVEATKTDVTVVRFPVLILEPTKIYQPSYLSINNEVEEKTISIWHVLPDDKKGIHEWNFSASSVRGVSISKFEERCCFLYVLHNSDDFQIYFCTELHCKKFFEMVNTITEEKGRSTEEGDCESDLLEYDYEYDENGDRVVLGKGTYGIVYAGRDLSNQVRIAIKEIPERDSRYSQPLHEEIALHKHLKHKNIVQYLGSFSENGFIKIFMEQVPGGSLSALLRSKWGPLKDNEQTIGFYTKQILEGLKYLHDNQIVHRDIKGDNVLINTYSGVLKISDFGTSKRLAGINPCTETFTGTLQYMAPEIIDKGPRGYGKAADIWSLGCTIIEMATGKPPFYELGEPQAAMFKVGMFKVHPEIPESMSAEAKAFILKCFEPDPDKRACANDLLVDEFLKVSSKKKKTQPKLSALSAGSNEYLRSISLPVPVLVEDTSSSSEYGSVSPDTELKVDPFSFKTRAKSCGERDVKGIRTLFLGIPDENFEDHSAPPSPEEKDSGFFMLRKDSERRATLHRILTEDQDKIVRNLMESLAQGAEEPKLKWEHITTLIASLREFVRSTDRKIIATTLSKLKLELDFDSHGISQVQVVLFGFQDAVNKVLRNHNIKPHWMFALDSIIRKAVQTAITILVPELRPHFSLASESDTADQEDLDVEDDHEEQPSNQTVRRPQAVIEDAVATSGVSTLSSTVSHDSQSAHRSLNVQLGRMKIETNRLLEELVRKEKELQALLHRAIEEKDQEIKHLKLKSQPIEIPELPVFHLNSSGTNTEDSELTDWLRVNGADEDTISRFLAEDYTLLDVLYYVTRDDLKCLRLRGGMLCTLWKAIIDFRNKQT
Chain of Rsk2(h) (P51812 whole entry): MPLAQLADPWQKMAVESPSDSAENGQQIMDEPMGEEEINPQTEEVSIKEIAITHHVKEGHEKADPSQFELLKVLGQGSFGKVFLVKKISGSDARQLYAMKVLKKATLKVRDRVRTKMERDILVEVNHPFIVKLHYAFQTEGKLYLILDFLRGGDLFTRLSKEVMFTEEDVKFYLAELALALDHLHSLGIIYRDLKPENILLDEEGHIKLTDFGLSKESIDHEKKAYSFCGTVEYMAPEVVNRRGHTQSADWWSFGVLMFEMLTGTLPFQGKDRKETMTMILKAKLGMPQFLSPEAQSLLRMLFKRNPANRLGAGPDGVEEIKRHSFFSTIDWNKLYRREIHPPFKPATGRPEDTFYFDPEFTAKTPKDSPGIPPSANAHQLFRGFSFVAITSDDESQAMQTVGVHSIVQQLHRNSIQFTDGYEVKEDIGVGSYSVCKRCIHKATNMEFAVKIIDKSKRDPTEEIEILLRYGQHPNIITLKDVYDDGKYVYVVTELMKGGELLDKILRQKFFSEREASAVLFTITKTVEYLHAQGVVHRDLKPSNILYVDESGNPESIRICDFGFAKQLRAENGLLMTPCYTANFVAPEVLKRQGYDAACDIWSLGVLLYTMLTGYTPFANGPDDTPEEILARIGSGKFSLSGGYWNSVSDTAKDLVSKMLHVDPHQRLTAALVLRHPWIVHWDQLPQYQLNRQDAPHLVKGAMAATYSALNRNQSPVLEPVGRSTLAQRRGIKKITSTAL
Chain of NDR1(h) (Q15208 whole entry): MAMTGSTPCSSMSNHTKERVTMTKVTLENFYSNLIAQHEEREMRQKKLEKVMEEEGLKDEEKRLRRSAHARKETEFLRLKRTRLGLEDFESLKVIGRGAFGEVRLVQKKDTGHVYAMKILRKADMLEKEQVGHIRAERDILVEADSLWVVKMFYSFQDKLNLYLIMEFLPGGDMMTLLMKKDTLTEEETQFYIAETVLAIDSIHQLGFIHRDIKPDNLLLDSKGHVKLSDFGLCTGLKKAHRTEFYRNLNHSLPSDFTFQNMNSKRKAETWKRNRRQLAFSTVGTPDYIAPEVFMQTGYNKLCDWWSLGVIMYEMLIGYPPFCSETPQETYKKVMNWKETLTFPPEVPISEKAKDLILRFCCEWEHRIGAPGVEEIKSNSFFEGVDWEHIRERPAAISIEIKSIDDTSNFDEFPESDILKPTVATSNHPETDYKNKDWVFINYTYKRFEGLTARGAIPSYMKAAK

## COc1ccc(OC)c(NS(=O)(=O)c2ccc(NC(=O)CCSc3ccc(C)cc3)cc2)c1 [Compound A41]
[1]
  colony formation: Inhibitory effect
[2]
  off-target binding: only very limited off-target binding
TA1537; - S9, 1.0E-04 M
  %Effect, single replicates (1st, 2nd, 3rd): 222.5% and 214.4% and 229.2%
  Cytotoxicity (% of control), Mean %Effect: 222.0%
TA1537; - S9, 1.0E-05 M
  %Effect, single replicates (1st, 2nd, 3rd): 109.9% and 108.6% and 111.2%
  Cytotoxicity (% of control), Mean %Effect: 109.9%
TA1537; - S9, 1.2E-06 M
  %Effect, single replicates (1st, 2nd, 3rd): 109.9% and 108.6% and 101.9%
  Cytotoxicity (% of control), Mean %Effect: 106.8%
TA1537; - S9, 2.5E-05 M
  %Effect, single replicates (1st, 2nd, 3rd): 128.7% and 115.3% and 112.6%
  Cytotoxicity (% of control), Mean %Effect: 118.8%
TA1537; - S9, 2.5E-06 M
  %Effect, single replicates (1st, 2nd, 3rd): 111.2% and 104.5% and 99.2%
  Cytotoxicity (% of control), Mean %Effect: 105.0%
TA1537; - S9, 5.0E-05 M
  %Effect, single replicates (1st, 2nd, 3rd): 162.2% and 150.1% and 148.8%
  Cytotoxicity (% of control), Mean %Effect: 153.7%
TA1537; - S9, 5.0E-06 M
  %Effect, single replicates (1st, 2nd, 3rd): 116.6% and 111.2% and 100.5%
  Cytotoxicity (% of control), Mean %Effect: 109.4%
TA1537; - S9, 6.0E-07 M
  %Effect, single replicates (1st, 2nd, 3rd): 107.2% (2×) and 115.3%
  Cytotoxicity (% of control), Mean %Effect: 109.9%
ASK1(h)
  Activity(%): 94%
BMPR2(h)
  Activity(%): 100%
CDK5/p25(h)
  Activity(%): 110%
DCAMKL2(h)
  Activity(%): 103%
EGFR(L858R)(h)
  Activity(%): 104%
EphA4(h)
  Activity(%): 111%
EphB1(h)
  Activity(%): 111%
HRI(h)
  Activity(%): 98%
Itk(h)
  Activity(%): 78%
LKB1(h)
  Activity(%): 107%
MELK(h)
  Activity(%): 107%
Met(h)
  Activity(%): 88%
MLK3(h)
  Activity(%): 115%
NDR1(h)
  Activity(%): 114%
NDR2(h)
  Activity(%): 112%
Rsk1(h)
  Activity(%): 122%
Rsk1(r)
  Activity(%): 128%
Rsk2(h)
  Activity(%): 86%
SRPK2(h)
  Activity(%): 96%
TLK2(h)
  Activity(%): 101%
TTK(h)
  Activity(%): 103%
WNK4(h)
  Activity(%): 107%
